Data: ChEMBL document CHEMBL1201862, “PubChem BioAssay data set” (2004)
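Five concentrations, 48 hours, 96-well plates. Here, GI50 denotes the concentration required for 50% inhibition of growth.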 The source made the active and inactive calls. Rule as the data show it: active = GI50 up to about 1.1 µM and inactive = higher.

Columns and labels:
Assay in all cases: NCI tumour cell line growth inhibition, 48 h
SK-MEL-2 = test system: SK-MEL-2
RPMI-8226 = test system: RPMI-8226
UO-31 = test system: UO-31
MDA-N = test system: MDA-N
U-251 = test system: U-251
SF-295 = test system: SF-295
CCRF-CEM = test system: CCRF-CEM
NCI-H23 = test system: NCI-H23
786-0 = test system: 786-0
SK-MEL-28 = test system: SK-MEL-28
SNB-19 = test system: SNB-19
MDA-MB-231 = test system: MDA-MB-231
A549 = test system: A549
A498 = test system: A498
DU-145 = test system: DU-145
NCI-H460 = test system: NCI-H460
SR = test system: SR
SF-268 = test system: SF-268
Hs-578T = test system: Hs-578T

Measured: GI50

COc1cc(C(c2cc3c(cc2O)OCO3)N2CCCC2)cc(OC)c1OC (stereo not drawn)
inactive: SK-MEL-2 19.6 µM | RPMI-8226 11.6 µM | UO-31 14.8 µM | MDA-N 13.4 µM | U-251 16.9 µM | SF-295 18.6 µM | CCRF-CEM 1.79 µM | NCI-H23 17.5 µM | 786-0 14.7 µM | SK-MEL-28 23.3 µM | SNB-19 19.3 µM | MDA-MB-231 15.9 µM | A549 20.4 µM | A498 21.4 µM | DU-145 19.3 µM

N#CCc1nc(O)c2ccccc2n1
inactive: NCI-H460 > 100 µM | SK-MEL-2 > 100 µM | UO-31 > 100 µM | MDA-N > 100 µM | U-251 > 100 µM | SF-295 > 100 µM | NCI-H23 > 100 µM | 786-0 > 100 µM | SK-MEL-28 > 100 µM | SNB-19 > 100 µM | MDA-MB-231 > 100 µM | A549 > 100 µM | DU-145 > 100 µM

O[C@@H]1C[C@@H]2N[C@@](O)(C[C@@H]2O)[C@H]1O
inactive: NCI-H460 > 100 µM | SR > 100 µM | RPMI-8226 > 100 µM | UO-31 > 100 µM | MDA-N > 100 µM | U-251 > 100 µM | SF-295 > 100 µM | CCRF-CEM > 100 µM | NCI-H23 > 100 µM | 786-0 > 100 µM | SK-MEL-28 > 100 µM | SF-268 > 100 µM | SNB-19 > 100 µM | Hs-578T > 100 µM | MDA-MB-231 > 100 µM | A549 > 100 µM | A498 > 100 µM | DU-145 > 100 µM

CCCN(CCC)C(=O)c1c(N2CCN(C)CC2)c2cccnc2n2c(C)cnc12
inactive: NCI-H460 > 100 µM | SK-MEL-2 > 100 µM | SR 39.5 µM | RPMI-8226 > 100 µM | UO-31 70 µM | MDA-N > 100 µM | U-251 > 100 µM | SF-295 > 100 µM | CCRF-CEM > 100 µM | NCI-H23 > 100 µM | 786-0 > 100 µM | SK-MEL-28 > 100 µM | SF-268 > 100 µM | SNB-19 27.5 µM | Hs-578T > 100 µM | MDA-MB-231 > 100 µM | A549 > 100 µM | A498 78.5 µM | DU-145 > 100 µM

O=C1CCCCCCCCCCC1CCCCCBr (stereo not drawn)
inactive: NCI-H460 36.6 µM | SK-MEL-2 16.9 µM | SR 24.7 µM | UO-31 26.1 µM | MDA-N 31.8 µM | U-251 20 µM | SF-295 34.4 µM | CCRF-CEM 17 µM | NCI-H23 24.4 µM | 786-0 32.4 µM | SK-MEL-28 19.9 µM | SF-268 30.8 µM | SNB-19 25.8 µM | Hs-578T 46.8 µM | MDA-MB-231 20.3 µM | A549 29.4 µM | A498 14.4 µM | DU-145 28.7 µM

O=C1c2ccoc2C(=O)c2oc(=O)ccc21
inactive: NCI-H460 18.7 µM | SK-MEL-2 6.59 µM | SR 1.43 µM | RPMI-8226 3.67 µM | UO-31 7.43 µM | U-251 8.15 µM | SF-295 17.5 µM | CCRF-CEM 5.57 µM | NCI-H23 2 µM | 786-0 16.8 µM | SK-MEL-28 5.43 µM | SF-268 9.14 µM | SNB-19 16 µM | A549 20.3 µM | A498 > 59.3 µM

COc1ccccc1C1c2cc3c(cc2OC(N2CCOCC2)C1C)OCO3 (stereo not drawn)
inactive: NCI-H460 16.6 µM | SK-MEL-2 17.7 µM | SR 15.8 µM | RPMI-8226 16.2 µM | UO-31 15.9 µM | MDA-N 10.5 µM | SF-295 13.5 µM | CCRF-CEM 13.2 µM | NCI-H23 19.8 µM | 786-0 18.9 µM | SK-MEL-28 15.6 µM | SF-268 16.1 µM | SNB-19 14 µM | Hs-578T 13.2 µM | A549 17.3 µM | DU-145 18.5 µM

CC1(C)C(CCO)CC1n1cc(I)c(=O)[nH]c1=O (stereo not drawn)
inactive: SK-MEL-2 > 100 µM | RPMI-8226 > 100 µM | UO-31 > 100 µM | MDA-N > 100 µM | U-251 75.3 µM | SF-295 > 100 µM | CCRF-CEM > 100 µM | 786-0 > 100 µM | SK-MEL-28 > 100 µM | SF-268 > 100 µM | SNB-19 > 100 µM | Hs-578T 90.6 µM | MDA-MB-231 86.3 µM | A549 > 100 µM | A498 > 100 µM | DU-145 > 100 µM

COC(=O)N1CCc2c(nc(N(C)CCO)[nH]c2=O)C1
inactive: NCI-H460 > 100 µM | SK-MEL-2 > 100 µM | SR > 100 µM | RPMI-8226 > 100 µM | UO-31 > 100 µM | U-251 > 100 µM | SF-295 > 100 µM | CCRF-CEM > 100 µM | NCI-H23 > 100 µM | 786-0 > 100 µM | SK-MEL-28 > 100 µM | SF-268 > 100 µM | SNB-19 > 100 µM | A549 > 100 µM | A498 > 100 µM

CC(C)c1cccc(C(C)C)c1NC(=S)NN=C1C=C(C(C)(C)C)C(=O)C(C(C)(C)C)=C1
inactive: NCI-H460 25.6 µM | SK-MEL-2 20.2 µM | SR 35.3 µM | RPMI-8226 27.2 µM | UO-31 29.6 µM | U-251 16.2 µM | SF-295 31 µM | CCRF-CEM 22.7 µM | NCI-H23 16.9 µM | 786-0 18.9 µM | SK-MEL-28 34.4 µM | SF-268 34.3 µM | SNB-19 22.3 µM | A549 19.9 µM | A498 17.9 µM

O=[N+]([O-])c1ccc2c(c1)S(=O)(=O)N1Cc3ccccc3CCN21
inactive: NCI-H460 > 100 µM | SK-MEL-2 > 100 µM | SR > 100 µM | RPMI-8226 > 100 µM | UO-31 > 100 µM | U-251 45.1 µM | SF-295 27.1 µM | CCRF-CEM > 100 µM | NCI-H23 > 100 µM | 786-0 97.5 µM | SK-MEL-28 > 100 µM | SF-268 40.7 µM | SNB-19 35 µM | Hs-578T 26.7 µM | MDA-MB-231 > 100 µM | A549 > 100 µM | A498 > 100 µM | DU-145 > 100 µM

COc1cc2c(cc1OC)-c1cc3cc(OC)c(OC)cc3n1CC2
inactive: NCI-H460 36 µM | SK-MEL-2 > 100 µM | SR > 100 µM | RPMI-8226 71.8 µM | UO-31 > 100 µM | U-251 37.7 µM | SF-295 13.2 µM | CCRF-CEM > 100 µM | NCI-H23 81.1 µM | 786-0 23.4 µM | SK-MEL-28 34 µM | SF-268 81.5 µM | SNB-19 25.8 µM | A549 50.2 µM | A498 14.4 µM
